Measured values from the NIST ThermoML archive (doi:10.1016/j.jct.2014.07.019).

Assay: xn = mol fraction of the nth substance listed
Details: 100 kPa, Liquid; for speed of sound: Frequency=3 MHz, Sing-around technique in a fixed-path interferometer; for mass density: Vibrating tube method

CCCCOCC(C)O (stereo not given) [1-butoxy-2-propanol] + CCCO
Details | mass density, 293.15 K [kg/m3] | mass density, 298.15 K [kg/m3] | mass density, 303.15 K [kg/m3] | mass density, 308.15 K [kg/m3] | mass density, 313.15 K [kg/m3] | speed of sound, 293.15 K [m/s] | speed of sound, 298.15 K [m/s] | speed of sound, 303.15 K [m/s] | speed of sound, 308.15 K [m/s] | speed of sound, 313.15 K [m/s]
x1 = 0.0573 | 812.915 | 808.937 | 804.905 | 800.798 | 796.651 | 1230.8 | 1213.8 | 1197.1 | 1180.4 | 1164.1
x1 = 0.1001 | 818.814 | 814.76 | 810.658 | 806.519 | 802.334 | 1235.7 | 1218.8 | 1202 | 1185.4 | 1169
x1 = 0.1558 | 825.901 | 821.803 | 817.667 | 813.493 | 809.279 | 1241.5 | 1224.8 | 1208 | 1191.3 | 1174.7
x1 = 0.2031 | 831.228 | 827.109 | 822.949 | 818.753 | 814.513 | 1246.3 | 1229.3 | 1212.5 | 1195.7 | 1179.1
x1 = 0.2532 | 836.415 | 832.273 | 828.091 | 823.867 | 819.599 | 1250.7 | 1233.6 | 1216.8 | 1199.8 | 1183.1
x1 = 0.3033 | 841.124 | 836.955 | 832.749 | 828.501 | 824.211 | 1254.6 | 1237.5 | 1220.5 | 1203.5 | 1186.7
x1 = 0.4046 | 849.477 | 845.264 | 841.013 | 836.72 | 832.382 | 1261.2 | 1243.9 | 1226.8 | 1209.6 | 1192.7
x1 = 0.5048 | 856.464 | 852.232 | 847.934 | 843.623 | 839.27 | 1266.3 | 1248.9 | 1231.7 | 1214.4 | 1197.2
x1 = 0.6055 | 862.441 | 858.152 | 853.82 | 849.452 | 845.054 | 1270.3 | 1252.9 | 1235.6 | 1218.2 | 1201
x1 = 0.7052 | 867.521 | 863.197 | 858.839 | 854.443 | 850.006 | 1273.2 | 1255.7 | 1238.4 | 1221.1 | 1203.8
x1 = 0.807 | 872.037 | 867.684 | 863.298 | 858.874 | 854.415 | 1275.7 | 1258.3 | 1240.8 | 1223.4 | 1206.2
x1 = 0.8546 | 873.936 | 869.566 | 865.165 | 860.735 | 856.272 | 1276.8 | 1259.3 | 1241.8 | 1224.2 | 1206.6
x1 = 0.9041 | 875.766 | 871.424 | 867.019 | 862.582 | 858.113 | 1277.7 | 1260.2 | 1242.6 | 1225 | 1207.4
x1 = 0.9537 | 877.527 | 873.128 | 868.704 | 864.265 | 859.772 | 1278.5 | 1260.8 | 1243.2 | 1225.6 | 1208.1
x1 = 1 | 879.031 | 874.632 | 870.204 | 865.737 | 861.241 | 1279 | 1260.9 | 1242.9 | 1224.9 | 1207
